Source: publication PMC4377976, “Bioactive Isopimarane Diterpenes from the Fungus, Epicoccum sp. HS-1, Associated with Apostichopus japonicus” (Marine Drugs, 2015)

Target: α-glucosidase
Assay: p-nitrophenyl glycoside hydrolysis assay, absorbance at […] nm
Format: biochemical

SMILES	IC50
Oc1ccc(/C=C/c2cc(O)cc(O)c2)cc1 [Resveratrol, reference compound]	31.2 ± 4.4 µM
C=C[C@@]1(C)C[C@@H](O)C2=C(C(=O)[C@@]3(O)OC[C@@]24CCCC(C)(C)[C@@]43O)[C@H]1OC [compound 1, Isopimarane diterpene (1)]	4.6 ± 0.1 µM
C=C[C@]1(C)C=C2[C@@H](O)[C@@]3(O)OC[C@@]4(CCCC(C)(C)[C@@]43O)[C@@]2(O)CC1 [compound 2, 11-deoxydiaporthein A]	11.9 ± 0.4 µM
